Several values for one entry are separate records, joined by “and”; a condition that tells them apart may be missing. Identical values can stand only once.
Test system: DLD1-OMP25HA cells
Assay: LC-MS metabolomic profiling, whole cell samples
Format: cell-based, human
Settings: DLD1-OMP25HA sgCtrl + Piericidin 5 μM 2 hours, rep01-rep03
Procedure: Rapid immunopurification of mitochondria was performed following the published methodology (4). In brief, cells with control or NADK2 knockout were engineered to express the HA-tagged OMP25 protein (Addgene, 83356); or in the case of FIG. 5E, parental DLD1 cells were engineered to express the HA-tagged OMP25 protein or the Myc-tagged OMP25 protein (Addgene, 83355), 30 million cells were washed and dounce homogenized in KPBS (136 mM KCl and 10 mM KH2PO4, pH 7.25). The homogenate was then cleared by centrifugation and the supernatant was applied to anti-HA beads (Thermo Fisher, 88837) and incubated with rotation for 3.5 min. The resultant beads were washed with KPBS and were eluted for different downstream analyses: Triton X-100 lysis buffer (50 mM Tris-HCl, pH 7.4, 150 mM NaCl, 1 mM EDTA, 1% (vol/vol) Triton X-100, and protease inhibitors) was used to elute mitochondria for Western blot analysis; 80:20 methanol:water containing 1.5 μM ^13C^15N labeled amino acids (Cambridge Isotope Laboratories, MSK-A2-1.2) was used to elute mitochondria for liquid chromatography-mass spectrometry (LC-MS) analysis; 80:20 methanol:water was used to elute mitochondria for NAD(H) and NADP(H) measurements; glutathione lysis buffer (see below) was used to elute mitochondria for GSH measurements.
For negative ionization mode liquid chromatography separation was achieved on an iHILIC-(P) Classic column (100 mm×2.1 mm, 5 μm particle size, HILICON). Mobile phase A was 10 mM ammonium bicarbonate in 10:90 acetonitrile:water with 5 μM medronic acid, pH 9.4 and mobile phase B was 10 mM ammonium bicarbonate in 90:10 acetonitrile:water with 5 μM medronic acid, pH 9.4). The gradient was 0 min, 95% B; 15 min, 50% B; 18 min, 50% B; 19 min, 95% B; 19.10 min, 95% B; 25.5 min, 95% B; 2 mins posttime. Other LC parameters were: flow rate: 200 μL/min; column temperature: 40° C., and injection volume was 2 μL. MS parameters were: gas temp: 300° C.; gas flow: 10 L/min; nebulizer pressure: 40 psig; sheath gas temp: 350° C.; sheath gas flow: 12 L/min; VCap: 3,000 V; fragmentor: 125 V. Data were acquired from m/z 50-1700 with active reference masses correction (m/z: 121.05087 and 922.00980 (positive mode) or m/z: 119.03632 and 980.01638 (negative mode). Peak identification and integration were done based on in-house exact mass and retention time library built from commercial standards. Data analysis and natural isotope abundance correction were performed using MassHunter Profinder software v10.0 (Agilent Technologies).
For metabolomic profiling of the Mito-IP samples, dried extracts were resuspended in 30 μL of 60:40 acetonitrile:water and an additional 7.5 μL of 100% methanol added to prevent phase separation. Samples were vortexed, incubated on ice for 20 min, and clarified by centrifugation at 20,000 g for 20 min at 4° C. LC-MS analysis was using the iHILIC-(P) Classic negative method described with 6545 Q-TOF mass spectrometer (Agilent Technologies). Whole cell extracts were analyzed in parallel and data analysis was performed using MassHunter Profinder v10.0 software (Agilent Technologies). Metabolite identifications reported were based on either (a) exact mass and retention times matched to authentic standards (denoted as RT in Tables 1A-1G) or (b) exact mass and MS2 spectra match using SIRIUS software (denoted as MS2 in Tables 1A-1G) (https://bio.informatik.uni-jena.de/software/sirius/). Metabolites were considered to be mitochondrial if the average peak area measured in anti-HA Mito-IPs from HA-tagged OMP25 cells was at least 1.5-fold more than in anti-HA Mito-IPs from the control cell expressing Myc-tagged OMP25 (scc Tables 1A-1G; FC>1.5 for [OMP25HA sgCtrl MitoIP vs. OMP25Myc MitoIP]).

C/C=C(\C)[C@H](O)[C@H](C)/C=C(C)/C=C/C/C(C)=C/Cc1nc(OC)c(OC)c(O)c1C [piericidin]
2-aminoadipate: 146679 and 129247 and 159230
2-hydroxyglutarate: 3675897 and 3670344 and 3586833
3-methyl-2-oxovalerate: 3696272 and 2980891 and 4249362
4-acetylbutyrate: 10363291 and 8533694 and 12130178
4-hydroxyproline: 522424 and 441928 and 551397
5-methylthioadenosine (MTA): 257749 and 400467 and 367942
5-oxoproline: 16393034 and 14068076 and 17132083
6-phosphogluconate: 65481 and 57701 and 58966
N6-(delta-isopentenyl)-adenine: 293077 and 229998 and 281738
N-acetyl-beta-alanine: 1022765 and 956905 and 1036571
N-acetylalanine: 238161 and 214277 and 230562
N-acetylaspartate (NAA): 12095956 and 11050203 and 12351863
N-acetylglucosamine 6-phosphate: 428986 and 380372 and 454385
N-acetylglutamate: 987898 and 1549149 and 871723
N-acetylglycine: 43846 and 40358 and 41154
N-acetylmethionine: 462515 and 426811 and 428397
N-acetylserine: 5896001 and 5058414 and 6358391
N-acetyltaurine: 1110210 and 1084752 and 1148548
N-acetylthreonine: 1380430 and 1226851 and 1295989
UDP-N-acetylglucosamine: 4639411 and 4238311 and 4998970
UDP-glucuronate: 1027925 and 858275 and 1243921
aconitate: 346582 and 453318 and 406006
adenine: 481304 and 768689 and 708555
adenosine 5′-diphosphate (ADP): 1129524 and 1189412 and 1083190
adenosine 5′-monophosphate (AMP): 646021 and 715531 and 648428
adenosine 5′-triphosphate (ATP): 2352445 and 2990040 and 2388618
alanine: 1663860 and 1344230 and 1765231
alanylhistidine: 22199 and 41823 and 30446
allantoin: 3703951 and 3225148 and 4031072
arginine: 1086834 and 998509 and 1348136
asparagine: 2068551 and 1580346 and 2240202
aspartate: 1717174 and 1947525 and 1819639
beta-glycerophosphoric acid: 850446 and 705915 and 880253
betaine: 161649 and 112014 and 159770
caproate: 114886 and 109032 and 115791
carbamoyl aspartate: 3763133 and 3469742 and 3815379
carnitine: 43283 and 41086 and 45131
citrate: 9028971 and 10970194 and 9594217
creatine: 549841 and 451406 and 565679
creatine phosphate: 394087 and 351223 and 410441
creatinine: 277361 and 240499 and 323168
cytidine 5′-triphosphate (CTP): 81066 and 75474 and 92586
dihydroxyacetone phosphate (DHAP): 1214605 and 1228567 and 1670800
dodecanoate: 303807 and 282352 and 360172
flavin adenine dinucleotide (FAD): 115513 and 108031 and 137050
folate: 99228 and 128177 and 134416
formylpyruvate: 1414077 and 902945 and 1059691
fructose 1,6-biphosphate: 1321982 and 1216851 and 1680580
fructose 6′-phosphate: 57127 and 49316 and 50145
fumarate: 357661 and 412548 and 377283
galactitol: 918739 and 708477 and 1199966
galactonic acid: 2240293 and 1677985 and 2390572
gamma-aminobutyrate (GABA): 3496195 and 3622488 and 3524195
glucosamine: 164826 and 119694 and 178113
glucose 6′-phosphate: 755029 and 621609 and 531377
glutamate: 126622339 and 129663305 and 129294077
glutamine: 58464656 and 69652329 and 62470821
glyceraldehyde 3-phosphate: 3045295 and 3098709 and 4229751
glycerophosphorylcholine (GPC): 210330 and 183098 and 225230
glycine: 146868 and 137614 and 144892
glycylaspartate: 205091 and 201360 and 226481
guanosine 5′-diphosphate (GDP): 69660 and 69853 and 38046
guanosine 5′-diphosphoglucose: 33192 and 34147 and 38993
guanosine 5′-monophosphate (GMP): 44633 and 51573 and 51777
guanosine 5′-triphosphate (GTP): 171526 and 214847 and 133658
histidine: 15027640 and 12343272 and 17476456
hydroxyphenyllactate: 1478092 and 1166698 and 1355443
inosine 5′-monophosphate (IMP): 22897 and 17939 and 22222
isoleucine: 4513788 and 3853543 and 5003963
lactate: 105521436 and 97172905 and 114401680
leucine: 7669096 and 6479727 and 8479119
lysine: 195097 and 149255 and 233140
malate: 12653099 and 10480180 and 12542946
methionine: 1041135 and 894784 and 1078995
methylthioribulose 1-phosphate: 21298086 and 18010540 and 22620900
nicotinamide: 39081 and 33023 and 41574
nicotinamide adenine dinucleotide (NAD+): 7875605 and 8688241 and 9053967
nicotinamide adenine dinucleotide phosphate (NADP+): 15380 and 19291 and 12614
nicotinamide adenine dinucleotide, reduced (NADH): 455322 and 465048 and 452884
oleate: 460639 and 248285 and 328228
palmitate: 20015231 and 20994808 and 24605738
pantothenate: 8937050 and 7961239 and 9124782
pentadecanoic acid: 302982 and 182808 and 229103
phenylacetate: 87967 and 87598 and 109383
phenylacetylglycine: 1781914 and 1641866 and 2033368
phenylalanine: 6841254 and 5972052 and 7346184
phosphocholine: 1734241 and 1590770 and 1746457
phosphoenolpyruvate (PEP): 217348 and 206448 and 247608
proline: 4018244 and 3303744 and 4136919
ribose 5′-phosphate: 30487 and 39389 and 44236
serine: 1972729 and 1697021 and 2115421
serinylaspartate: 80143 and 82279 and 87822
sn-glycero-3-phosphoethanolamine: 3947102 and 4703023 and 3861169
stearate: 10555350 and 11041062 and 14072247
succinate: 468012 and 552589 and 622074
taurine: 79062900 and 54111662 and 81152564
threonate: 4663562 and 3938483 and 4644285
threonine: 13508533 and 12463455 and 14159756
thymidine 5′-diphospho-alpha-D-glucose: 14725 and 13909 and 14870
thymine: 24681 and 21055 and 27340
tryptophan: 747292 and 595893 and 756562
tyrosine: 3847092 and 3576189 and 3918008
uridine 5′-diphosphate (UDP): 175584 and 155688 and 210038
uridine 5′-monophosphate (UMP): 631970 and 347896 and 460624
uridine 5′-triphosphate (UTP): 3135652 and 2793092 and 3584193
valine: 1041408 and 903609 and 1081229

From patent publication US20240209353A1, “NADK2 INHIBITION IN CANCER AND FIBROTIC DISORDERS” (Memorial Sloan-Kettering Cancer Center, priority 2021, published 2024)
